Measured values reported in ChEMBL document CHEMBL1201862, “PubChem BioAssay data set” (2004).
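96-well plates; 48 h exposure; 5 concentrations. Endpoints by linear interpolation between flanking doses. Not reached: highest tested concentration assigned. Here, GI50 denotes the concentration required for 50% inhibition of growth.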 Calls of active or inactive are those of the source. Cut-off read from the data, not from the text of the source: active = GI50 up to about 1.1 µM and inactive = higher.

Key:
Assay in all cases: inhibition of tumour cell growth, NCI panel, 48 h
786-0 = system: 786-0
A549 = system: A549
CCRF-CEM = system: CCRF-CEM
COLO 205 = system: COLO 205
EKVX = system: EKVX
HCT-15 = system: HCT-15
KM12 = system: KM12
LOX IMVI = system: LOX IMVI
MDA-MB-231 = system: MDA-MB-231
NCI-H460 = system: NCI-H460
NCI/ADR-RES = system: NCI/ADR-RES
OVCAR-4 = system: OVCAR-4
OVCAR-5 = system: OVCAR-5
OVCAR-8 = system: OVCAR-8
PC-3 = system: PC-3
RXF 393 = system: RXF 393
SF-295 = system: SF-295
SK-MEL-28 = system: SK-MEL-28
SNB-75 = system: SNB-75
SR = system: SR

Compound: CC/C=C/c1cc2c(cc1O)CCC1C2CC[C@@]2(C)C1CC[C@@H]2O (stereo not given in full)
- GI50 (786-0): 2.34 µM (inactive)
- GI50 (A549): 4.12 µM (inactive)
- GI50 (CCRF-CEM): 1.73 µM (inactive)
- GI50 (COLO 205): 14 µM (inactive)
- GI50 (EKVX): 3.53 µM (inactive)
- GI50 (HCT-15): 4.33 µM
- GI50 (KM12): 4.32 µM (inactive)
- GI50 (LOX IMVI): 0.904 µM (active)
- GI50 (MDA-MB-231): 3.53 µM (inactive)
- GI50 (NCI-H460): 0.82 µM (active)
- GI50 (NCI/ADR-RES): 0.667 µM (active)
- GI50 (OVCAR-4): 19.9 µM (inactive)
- GI50 (OVCAR-5): 12.5 µM (inactive)
- GI50 (OVCAR-8): 4.31 µM (inactive)
- GI50 (PC-3): 3.49 µM (inactive)
- GI50 (RXF 393): 1.08 µM (active)
- GI50 (SF-295): 0.34 µM (active)
- GI50 (SK-MEL-28): 11.3 µM (inactive)
- GI50 (SNB-75): 1.44 µM (inactive)
- GI50 (SR): 0.34 µM (active)
